Test results from US20240109917A1 (ACTELION PHARMACEUTICALS LTD, priority 2020, published 2024).

How the values were obtained:
[1] = target: Tb-labeled inactive PDGFRβ (Homo sapiens (Human), UniProt P09619); assay: PDGFRβ LanthaScreen Assay; type: binding; details: read-out: PDGFR Lantha IC50
[2] = target: His6-TEV-PDGFRβ (557-1016) (Homo sapiens (Human), UniProt P09619); assay: PDGFRβ HTRF Assay; type: biochemical; details: read-out: PDGFR HTRF IC50
How it was run: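 HTRF KinEASE-TK readout (665/620 nm ratio) of TK-biotin substrate phosphorylation by His-tagged PDGFRβ kinase domain. Enzyme and inhibitor preincubated 30 min, then ATP/substrate added for 3 h at room temperature before 60 min EDTA quench/detection.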

His6-TEV-PDGFRβ (557-1016), sequence (P09619 557-1016): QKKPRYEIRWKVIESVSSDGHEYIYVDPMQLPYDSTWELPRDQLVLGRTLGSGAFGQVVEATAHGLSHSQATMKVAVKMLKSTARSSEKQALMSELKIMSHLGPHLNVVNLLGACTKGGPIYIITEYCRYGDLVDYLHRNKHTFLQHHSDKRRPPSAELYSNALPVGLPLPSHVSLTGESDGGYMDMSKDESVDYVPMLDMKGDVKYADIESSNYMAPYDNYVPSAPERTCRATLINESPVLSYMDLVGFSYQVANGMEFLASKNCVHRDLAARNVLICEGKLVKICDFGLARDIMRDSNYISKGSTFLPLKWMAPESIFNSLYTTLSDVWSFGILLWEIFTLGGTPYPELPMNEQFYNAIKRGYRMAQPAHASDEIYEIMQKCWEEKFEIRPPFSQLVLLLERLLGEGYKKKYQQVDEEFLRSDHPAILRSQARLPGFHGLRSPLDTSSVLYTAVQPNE
Tb-labeled inactive PDGFRβ, sequence (P09619 33-1106): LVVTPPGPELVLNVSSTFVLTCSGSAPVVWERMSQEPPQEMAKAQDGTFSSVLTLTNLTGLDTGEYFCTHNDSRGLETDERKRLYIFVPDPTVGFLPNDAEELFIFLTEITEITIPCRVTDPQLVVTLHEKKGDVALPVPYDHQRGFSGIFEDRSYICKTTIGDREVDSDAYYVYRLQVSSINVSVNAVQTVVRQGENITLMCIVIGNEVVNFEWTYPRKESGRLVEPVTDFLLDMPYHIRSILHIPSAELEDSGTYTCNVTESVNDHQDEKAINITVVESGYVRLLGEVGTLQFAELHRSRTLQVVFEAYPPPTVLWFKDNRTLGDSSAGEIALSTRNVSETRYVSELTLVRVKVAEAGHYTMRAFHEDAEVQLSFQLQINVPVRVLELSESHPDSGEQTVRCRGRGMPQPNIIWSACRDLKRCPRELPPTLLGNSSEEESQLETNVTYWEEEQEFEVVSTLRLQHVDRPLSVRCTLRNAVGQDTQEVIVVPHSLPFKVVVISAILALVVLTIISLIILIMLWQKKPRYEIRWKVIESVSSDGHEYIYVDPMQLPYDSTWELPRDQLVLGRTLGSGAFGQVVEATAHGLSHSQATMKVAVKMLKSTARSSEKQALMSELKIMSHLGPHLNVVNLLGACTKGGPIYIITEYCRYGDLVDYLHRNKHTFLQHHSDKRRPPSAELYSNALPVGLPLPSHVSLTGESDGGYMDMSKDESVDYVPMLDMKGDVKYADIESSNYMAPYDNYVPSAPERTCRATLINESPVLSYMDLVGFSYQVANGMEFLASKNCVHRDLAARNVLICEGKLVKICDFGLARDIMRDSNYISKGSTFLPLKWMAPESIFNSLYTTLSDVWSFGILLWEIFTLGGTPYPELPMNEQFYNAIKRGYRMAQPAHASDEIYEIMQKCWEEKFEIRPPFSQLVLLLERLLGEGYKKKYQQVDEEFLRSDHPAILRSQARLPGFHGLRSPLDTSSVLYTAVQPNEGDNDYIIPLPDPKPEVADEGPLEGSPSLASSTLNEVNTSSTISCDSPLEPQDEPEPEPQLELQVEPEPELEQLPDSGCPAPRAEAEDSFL

Compound	IC50 [1]	IC50 [2]
Cc1ncc(NC(=O)CN2CCc3c(cnn3C)C2)cc1NC(=O)c1cnn2cc(-c3cnn(C)c3)sc12 [Example 57, 2-(1-methyl-1H-pyrazol-4-yl)-N-(2-methyl-5-(2-(1-methyl-6,7-dihydro-1H-pyrazolo[4,3-c]pyridin-5 (4H)-yl)acetamido)pyridin-3-yl)pyrazolo[5,1-b]thiazole-7-carboxamide]	10.8 nM	1 nM
COCCn1cc(-c2cn3ncc(C(=O)Nc4cc(NC(=O)CCN5CCC6(CCC6)C5)cnc4C)c3s2)cn1 [Example 90, N-(5-(3-(6-azaspiro[3.4]octan-6-yl)propanamido)-2-methylpyridin-3-yl)-2-(1-(2-methoxyethyl)-1H-pyrazol-4-yl)pyrazolo[5,1-b]thiazole-7-carboxamide]	10.6 nM	0.5 nM
Cc1ncc(NC(=O)CN2Cc3ncsc3C2)cc1NC(=O)c1cnn2cc(-c3cnn(C)c3)sc12 [Example 76, N-(5-(2-(4H-pyrrolo[3,4-d]thiazol-5 (6H)-yl)acetamido)-2-methylpyridin-3-yl)-2-(1-methyl-1H-pyrazol-4-yl)pyrazolo[5,1-b]thiazole-7-carboxamide]	8.9 nM	0.9 nM
Cc1ncc(NC(=O)CN2CCC3(CCO3)CC2)cc1NC(=O)c1cnn2cc(-c3cnn(C)c3)sc12 [Example 81, N-(5-(2-(1-oxa-7-azaspiro[3.5]nonan-7-yl)acetamido)-2-methylpyridin-3-yl)-2-(1-methyl-1H-pyrazol-4-yl)pyrazolo[5,1-b]thiazole-7-carboxamide]	76.8 nM	2.8 nM
Cc1ncc(NC(=O)CN2CCc3cccnc3C2)cc1NC(=O)c1cnn2cc(-c3cnn(C)c3)sc12 [Example 60, N-(5-(2-(5,6-dihydro-1,7-naphthyridin-7 (8H)-yl)acetamido)-2-methylpyridin-3-yl)-2-(1-methyl-1H-pyrazol-4-yl)pyrazolo[5,1-b]thiazole-7-carboxamide]	18.3 nM	1 nM
Cc1ncc(NC(=O)CNCC(C)C)cc1NC(=O)c1cnn2cc(-c3cnn4c3CCC4)sc12 [Example 493, 2-(5,6-dihydro-4H-pyrrolo[1,2-b]pyrazol-3-yl)-N-(5-(2-(isobutylamino)acetamido)-2-methylpyridin-3-yl)pyrazolo[5,1-b]thiazole-7-carboxamide]	1.9 nM	0.2 nM
Cc1ncc(NC(=O)CN2CCO[C@@H](C)C2)cc1NC(=O)c1cnn2cc(-c3cnn(C)c3)sc12 [Example 64, (S)-2-(1-methyl-1H-pyrazol-4-yl)-N-(2-methyl-5-(2-(2-methylmorpholino)acetamido)pyridin-3-yl)pyrazolo[5,1-b]thiazole-7-carboxamide]	6.3 nM	0.4 nM
Cc1ncc(NC(=O)CN2CCOCC2)cc1NC(=O)c1cnn2cc(-c3cnn(C)c3)sc12 [Example 55, 2-(1-methyl-1H-pyrazol-4-yl)-N-(2-methyl-5-(2-morpholinoacetamido)pyridin-3-yl)pyrazolo[5,1-b]thiazole-7-carboxamide]	40.6 nM	1.5 nM
Cc1ncc(NC(=O)CN2CCC[C@@H]2C)cc1NC(=O)c1cnn2cc(-c3cnn(CCO)c3)sc12 [Example 84, (S)-2-(1-(2-hydroxyethyl)-1H-pyrazol-4-yl)-N-(2-methyl-5-(2-(2-methylpyrrolidin-1-yl)acetamido)pyridin-3-yl)pyrazolo[5,1-b]thiazole-7-carboxamide]	10.9 nM	0.9 nM
COCCn1cc(-c2cn3ncc(C(=O)Nc4cc(NC(=O)CCN5CCC(C)(C)C5)cnc4C)c3s2)cn1 [Example 89, N-(5-(3-(3,3-dimethylpyrrolidin-1-yl)propanamido)-2-methylpyridin-3-yl)-2-(1-(2-methoxyethyl)-1H-pyrazol-4-yl)pyrazolo[5,1-b]thiazole-7-carboxamide]	12.7 nM	0.6 nM
Cc1ncc(NC(=O)CN2Cc3ccncc3C2)cc1NC(=O)c1cnn2cc(-c3cnn(C)c3)sc12 [Example 77, N-(5-(2-(1H-pyrrolo[3,4-c]pyridin-2 (3H)-yl)acetamido)-2-methylpyridin-3-yl)-2-(1-methyl-1H-pyrazol-4-yl)pyrazolo[5,1-b]thiazole-7-carboxamide]	15.9 nM	1.8 nM
Cc1ncc(NC(=O)CN2C[C@H](C)O[C@@H](C)C2)cc1NC(=O)c1cnn2cc(-c3cnn(C)c3)sc12 [Example 52, N-(5-(2-((2S,6S)-2,6-dimethylmorpholino)acetamido)-2-methylpyridin-3-yl)-2-(1-methyl-1H-pyrazol-4-yl)pyrazolo[5,1-b]thiazole-7-carboxamide]	0.8 nM	0.3 nM
Cc1ncc(NC(=O)CN2CCN(C)C(=O)C2)cc1NC(=O)c1cnn2cc(-c3cnn(C)c3)sc12 [Example 72, 2-(1-methyl-1H-pyrazol-4-yl)-N-(2-methyl-5-(2-(4-methyl-3-oxopiperazin-1-yl)acetamido)pyridin-3-yl)pyrazolo[5,1-b]thiazole-7-carboxamide]	112 nM	5.7 nM
COCCn1cc(-c2cn3ncc(C(=O)Nc4cc(NC(=O)C(C)(C)CN5CCCC5(C)C)cnc4C)c3s2)cn1 [Example 488, N-(5-(3-(2,2-dimethylpyrrolidin-1-yl)-2,2-dimethyl-propanamido)-2-methylpyridin-3-yl)-2-(1-(2-methoxyethyl)-1H-pyrazol-4-yl)pyrazolo[5,1-b]thiazole-7-carboxamide]	1280 nM	92.3 nM
COCCn1cc(-c2cn3ncc(C(=O)Nc4cc(NC(=O)C[C@H]5CCN(C(C)C)C5)cnc4C)c3s2)cn1 [Example 486, (R)—N-(5-(2-(1-isopropylpyrrolidin-3-yl)acetamido)-2-methylpyridin-3-yl)-2-(1-(2-methoxyethyl)-1H-pyrazol-4-yl)pyrazolo[5,1-b]thiazole-7-carboxamide]	127 nM	2.6 nM
Cc1ncc(C(=O)NCCN2CC3CCC2CC3)cc1NC(=O)c1cnn2cc(-c3ccnc(N4CCOCC4)c3)sc12 [Example 484, N-(5-((2-(2-azabicyclo[2.2.2]octan-2-yl)ethyl)carbamoyl)-2-methylpyridin-3-yl)-2-(2-morpholinopyridin-4-yl)pyrazolo[5,1-b]thiazole-7-carboxamide]	1.4 nM	0.2 nM
Cc1ncc(NC(=O)CN2CCOCC23CCC3)cc1NC(=O)c1cnn2cc(-c3cnn(C)c3)sc12 [Example 78, N-(5-(2-(8-oxa-5-azaspiro[3.5]nonan-5-yl)acetamido)-2-methylpyridin-3-yl)-2-(1-methyl-1H-pyrazol-4-yl)pyrazolo[5,1-b]thiazole-7-carboxamide]	5.7 nM	0.9 nM
Cc1ncc(NC(=O)CN2C[C@@H](C)O[C@@H](C)C2)cc1NC(=O)c1cnn2cc(-c3cnn(C)c3)sc12 [Example 53, N-(5-(2-((2R,6S)-2,6-dimethylmorpholino)acetamido)-2-methylpyridin-3-yl)-2-(1-methyl-1H-pyrazol-4-yl)pyrazolo[5,1-b]thiazole-7-carboxamide]	2.7 nM	0.3 nM
CC[C@H]1COCCN1CC(=O)Nc1cnc(C)c(NC(=O)c2cnn3cc(-c4cnn(C)c4)sc23)c1 [Example 70, (S)—N-(5-(2-(3-ethylmorpholino)acetamido)-2-methylpyridin-3-yl)-2-(1-methyl-1H-pyrazol-4-yl)pyrazolo[5,1-b]thiazole-7-carboxamide]	2.9 nM	0.2 nM
CC[C@@H]1COCCN1CC(=O)Nc1cnc(C)c(NC(=O)c2cnn3cc(-c4cnn(C)c4)sc23)c1 [Example 69, (R)—N-(5-(2-(3-ethylmorpholino)acetamido)-2-methylpyridin-3-yl)-2-(1-methyl-1H-pyrazol-4-yl)pyrazolo[5,1-b]thiazole-7-carboxamide]	4.7 nM	0.5 nM
Cc1ncc(NC(=O)CN2CCC(F)(F)C2)cc1NC(=O)c1cnn2cc(-c3cnn(C)c3)sc12 [Example 73, N-(5-(2-(3,3-difluoropyrrolidin-1-yl)acetamido)-2-methylpyridin-3-yl)-2-(1-methyl-1H-pyrazol-4-yl)pyrazolo[5,1-b]thiazole-7-carboxamide]	1.7 nM	0.3 nM
Cc1ncc(C(=O)NCCN2CCCC2(C)C)cc1NC(=O)c1cnn2cc(-c3ccnc(N4CCOCC4)c3)sc12 [Example 483, N-(5-((2-(2,2-dimethylpyrrolidin-1-yl)ethyl)carbamoyl)-2-methylpyridin-3-yl)-2-(2-morpholinopyridin-4-yl)pyrazolo[5,1-b]thiazole-7-carboxamide]	2.1 nM	0.3 nM
Cc1ncc(NC(=O)CNC2(C)CCC2)cc1NC(=O)c1cnn2cc(-c3cnn4c3OCCC4)sc12 [Example 495, 2-(6,7-dihydro-5H-pyrazolo[5,1-b][1,3]oxazin-3-yl)-N-(2-methyl-5-(2-((1-methylcyclobutyl)amino)acetamido)pyridin-3-yl)pyrazolo[5,1-b]thiazole-7-carboxamide]	2.5 nM	0.3 nM
Cc1ncc(NC(=O)CN2CCc3ncsc3C2)cc1NC(=O)c1cnn2cc(-c3cnn(C)c3)sc12 [Example 58, N-(5-(2-(6,7-dihydrothiazolo[5,4-c]pyridin-5 (4H)-yl)acetamido)-2-methylpyridin-3-yl)-2-(1-methyl-1H-pyrazol-4-yl)pyrazolo[5,1-b]thiazole-7-carboxamide]	12.5 nM	1 nM
Cc1ncc(NC(=O)CN2[C@H](C)COC[C@H]2C)cc1NC(=O)c1cnn2cc(-c3cnn(C)c3)sc12 [Example 51, N-(5-(2-((3R,5R)-3,5-dimethylmorpholino)acetamido)-2-methylpyridin-3-yl)-2-(1-methyl-1H-pyrazol-4-yl)pyrazolo[5,1-b]thiazole-7-carboxamide]	4.8 nM	0.4 nM
